Reference: patent US20250302903A1, “COMPOSITION FOR PREVENTION AND TREATMENT OF MUSCLE DISEASE, CONTAINING MAGNOLIA OFFICINALIS EXTRACT AS ACTIVE INGREDIENT” (TWINPIGBIOLAB INC., priority 2022, published 2025)

Assays:
[1] = tested on: cells expressing both CD68 and IGF-1; experiment: Immunohistochemistry of CD68 and IGF-1 in TA muscle sections; format: in vivo, mice (C57BL/6); settings: per image area
Procedure: It was confirmed whether […], which shifted the polarization of a macrophage phenotype from M2a to M2c (macrophages involved in extracellular matrix remodeling and muscle healing), and the number of macrophages were affected in skeletal muscle by administration of a Magnolia officinalis extract. Specifically, the TA muscle tissue sections of Example 4-3 were incubated overnight with a primary antibody, rat anti-mouse CD68 antibody (1:250; MCA1957GA; Bio-Rad, Contra Costa County, CA, USA) and rabbit anti-mouse IGF-1 antibody (1:500; 40657; Abcam, Cambridge, UK), and then incubated for 30 minutes with a secondary antibody, Alexa Fluor 488-conjugated goat anti-rat immunoglobulin IgG (A11006; Invitrogen, Carls-bad, CA, USA) and Alexa Fluor 594-conjugated goat anti-rabbit IgG (A32740; Invitrogen, Carlsbad, CA, USA). Thereafter, the sections were mounted using mounting media containing 4′,6-diamidino-2-phenylindole (DAPI) (H-1200, Vector, Torrance, CA, USA), and then imaged under a confocalator microscope (FV10C-PSU; Olympus Corporation, Tokyo, Japan). In the captured images, the numbers of IGF-I (red), CD68 (macrophage) (green), and DAPI (blue) positive cells per image area were measured in at least five random fields.

[2] = tested on: cisplatin-induced sarcopenia mouse model; experiment: Leg weight and tibialis anterior (TA) muscle mass on day 42, cisplatin-induced skeletal muscle wasting; format: in vivo, mice (C57BL/6); settings: vs cisplatin group
Procedure: In order to confirm an effect of a Magnolia officinalis extract on cisplatin-induced skeletal muscle wasting, the leg weight and tibialis anterior (TA) muscle mass of each group were measured on day 42 of the experiment.

[3] = tested on: cisplatin-induced sarcopenia mouse model; experiment: Grip strength (forelimb and all limbs) by digital force gauge; format: in vivo, mice (C57BL/6); settings: M.C 100 and 200 mg/kg; magnolol 10 mg/kg i.p.
Procedure: To determine the effect of the Magnolia officinalis extract on cisplatin-induced grip strength reduction, muscle strength of all limbs and muscle strength of forelimb were measured using a digital force gauge (DS2-5N; IMADA Inc., Northbrook, IL, USA). The muscle strength was measured by pulling the mouse's tail downward 5times and recording the peak tension when the mouse released its foot, and repeated 3 times at 10-minute intervals, and the average of 5 values was used for calculation.

[4] = tested on: cisplatin-induced sarcopenia mouse model
Procedure: Specifically, mice (C57BL/6, 7 to 8 weeks old) (Jackson Laboratories, Raon Bio, Gyeonggi) were randomly caged and raised in a regulated environment with free access to food and water with a 12-hour light/dark cycle, and then on days 1 to 5 and days 26 to 30, cisplatin (Sigma-Aldrich, P4394; St. Louis, MO, USA) (2.5 mg/kg) dissolved at 1 mg/mL in physiological saline was injected intraperitoneally once daily (sarcopenia mouse model), M.C (50, 100 and 200 mg/kg) were administered orally every 3 days (total of 12 times).

[5] = tested on: mouse colon cancer cell line CT26; experiment: Anti-tumor activity of cisplatin in the CT26 colon cancer-bearing mouse model; format: in vivo; settings: cisplatin alone; CT26 s.c. 3×10^5 per mouse
Procedure: To confirm whether administration of the Magnolia officinalis extract interfered with the anti-tumor activity of cisplatin, a mouse colon cancer cell line CT26 (Korean Cell Line Bank, 80009; Seoul, Korea) was injected subcutaneously at 3×10^5 per mouse to fabricate a colon cancer-bearing mouse model, and then treated with cisplatin or cisplatin+Magnolia officinalis extract (200 mg/kg), and the size (volume) and weight of tumor were measured every 3 days.

Structure (SMILES)	number of cells expressing both CD68 and IGF-1 [1]	TA muscle mass reduction induced by cisplatin [2]	leg weight reduction induced by cisplatin [2]	pulling force power (grip strength) compared to the cisplatin administered group [3]	cisplatin-induced rapid weight loss (body weight, A of FIG. 2) ([4]; M.C 50, 100 and 200 mg/kg orally every 3 days (12 times), magnolol 10 mg/kg i.p. every 3 days, vs CIS+PBS)	changes in weight on the last and first days (B of FIG. 2) ([4]; M.C orally or magnolol 10 mg/kg i.p. vs cisplatin group)	tumor growth (size and weight) [5]
C=CCc1ccc(O)c(-c2cc(CC=C)ccc2O)c1 [magnolol]	increased	significantly alleviated	significantly alleviated	significantly increased	significantly alleviated	significant reduction in weight loss	–
N.N.[Cl][Pt][Cl] [cisplatin]	–	–	–	–	–	–	significantly reduced tumor growth
